PubChem BioAssay AID463204 (Broad Institute, 2010)
Calls of active or inactive are those of the source.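 How the source made its calls: active means AC50 no more than ten times the top concentration tested, that is within one log above it; inconclusive means flat curve fit with activity between 30% and 70%, or invalid poor fit; inactive means AC50 beyond ten times the top tested dose.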

Tested on: S. cerevisiae Mot1-301 ts growth rescue, BacTiter-Glo ATP luminescence
Test: restored Mot1-301 yeast growth at 38.5C – whole organism, S. cerevisiae, Mot1-301 ts mutant, luminescence, dose retest, SUMOylation pathway inhibitor project, confirmation (AID 463204);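 further: growth at restrictive 38.5 degrees C of Mot1-301 OY566 strain; actives raise luminescence by restoring growth of the ts mutant at high temperature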

Row | Compound | AC50
1 | COc1cc(CN2CCN(c3ncccn3)CC2)cc(OC)c1 | > 42 µM (inactive)
2 | CCCNCC(O)COc1ccccc1C(=O)CCc1ccccc1 (stereo unspecified) | > 42 µM (inactive)
3 | O=C1c2ccccc2S(=O)(=O)N1Cc1cc(=O)n2ccsc2n1 | > 42 µM (inactive)
4 | CCc1ccc(S(=O)(=O)NCc2cccnc2)cc1 | > 42 µM (inactive)
5 | Cc1cnc(C(=O)OC(C(=O)c2c[nH]c3ccccc23)c2ccccc2)cn1 (stereo unspecified) | 29.4 µM
6 | COc1ccc(CCNC(=O)c2cc(-c3ccco3)on2)cc1OC | > 42 µM (inactive)
7 | Cc1cc(=O)oc2ccc(OC(=O)CC(C)C)cc12 | > 42 µM (inactive)
8 | CCOC(=O)N1CCC(NS(=O)(=O)c2ccc(C)c(Cl)c2)CC1 | > 42 µM (inactive)
9 | COc1ccc(N(C(=O)c2ccco2)C(C(=O)NC2CCCCC2)c2ccccc2)cc1 (stereo unspecified) | > 42 µM (inactive)
10 | CC1c2cc3c(cc2CCN1CC(=O)Nc1ccccc1)OCCCO3 (stereo unspecified) | > 42 µM (inactive)
11 | CCCCn1c(N)c(N(CCOC)C(=O)c2ccc(Cl)c(S(=O)(=O)N3CCCCC3)c2)c(=O)[nH]c1=O | > 42 µM (inactive)
12 | COc1ccc(-c2cc(CC3(C(=O)O)CCN(C(=O)OC(C)(C)C)CC3)on2)c(OC)c1 | > 42 µM (inactive)
13 | Cc1cccc(N/N=C/c2c(O)[nH]c(=S)[nH]c2=O)c1 | > 42 µM (inactive)
14 | CC(=O)N1CCC2(CC1)CC(=O)c1cc(OCC(=O)N3CCCC3)ccc1O2 | > 42 µM (inactive)
15 | CCCCC(O)(CCCC)C(=O)NN(C(=O)OC)c1ccc(C)cc1 | > 42 µM (inactive)
16 | Cc1ccc(NS(=O)(=O)c2cc(C(=O)Nc3cccc([N+](=O)[O-])c3)ccc2C)cc1 | > 42 µM (inactive)
17 | CC1(OC(=O)C2CCCC2)C(=O)C=C2C=C(c3ccsc3)OC=C2C1=O (stereo unspecified) | > 42 µM (inactive)
18 | c1ccc(-c2cc3ccccc3cn2)cc1 | 35 µM
19 | CCc1ccccc1NC(=S)NNC(=O)c1ccccc1Cl | > 42 µM (inactive)
20 | CCn1ncc(Br)c1C(=O)Nc1ccc(OC(F)(F)F)cc1 | > 42 µM (inactive)
21 | CN(C)c1ccc2nc3ccc(=[N+](C)C)cc-3sc2c1 | > 42 µM (inactive)
22 | COc1ccccc1/C=C/C(=O)c1c2c(c(C)[nH]c1=O)CCCC2 | > 42 µM (inactive)
23 | Nc1nc2ccccc2cc1-c1cccs1 | > 42 µM (inactive)
24 | Cc1cc(OCC(=O)NCC2CCC(C(=O)O)CC2)c2c(C)c(C)c(=O)oc2c1 (stereo unspecified) | > 42 µM (inactive)
25 | O=C(CSc1ncccn1)c1ccccc1Br | > 42 µM (inactive)
26 | COc1cc(/C=N/n2cnnc2)ccc1OCc1ccccc1 | > 42 µM (inactive)

Row | Compound | AC50
27 | CCCSc1nc(=O)n2cccc(C)c2n1 | > 42 µM (inactive)
28 | Cc1cc(C)c2c(=O)[nH]cnc2n1 | > 42 µM (inactive)
29 | C=C(C)Cn1c(SCC(=O)N/N=C/c2ccccc2OCC(=O)O)nnc1-c1ccc(Br)cc1 | > 42 µM (inactive)
30 | Cn1c(=O)nc2n(Cc3ccccc3)c3ccccc3cc-2c1=O | > 42 µM (inactive)
31 | Cc1ccc(O)c(CNc2nc3ccccc3n2C)c1 | > 42 µM (inactive)
32 | Cc1c(NC(=O)c2cc(-c3ccccc3O)on2)c(=O)n(-c2ccccc2)n1C | > 42 µM (inactive)
33 | Cc1cccc(C(=O)NCC(=O)N2CCN(c3ccc(Cl)cc3)CC2)c1 | > 42 µM (inactive)
34 | Cc1cccc(NC(=O)CSCC(=O)N2CCCc3ccccc32)c1 | > 42 µM (inactive)
35 | COc1ccc(/C=C/C(=O)NC(=S)Nc2ccccn2)cc1 | > 42 µM (inactive)
36 | CCOC(=O)CNC(=O)c1c(C)nn(C)c1Cl | > 42 µM (inactive)
37 | O=C1CN(C(=O)COC(=O)c2ccccc2NCc2ccco2)c2ccccc2N1 | > 42 µM (inactive)
38 | Cc1ccc(N=c2ssnc2Cl)cc1 | 3.13 µM
39 | CCS(=O)(=O)N1CCC(C(=O)N2CCc3ccccc3C2)CC1 | > 42 µM (inactive)
40 | Cc1nc(-c2ccc(Cl)cc2)sc1C1(C)CC(c2c(Cl)cccc2Cl)=NO1 (stereo unspecified) | > 42 µM (inactive)
41 | c1ccc2c(C[C@@H]3CNCCN3CCCCC3CCCCC3)cccc2c1 | 15.6 µM
42 | Cc1sc2nc(SCC(=O)NCCOCCO)n(C)c(=O)c2c1C | > 42 µM (inactive)
43 | Nc1ccc(S(=O)(=O)NNC(=O)C(=O)NNc2ccccc2)cc1 | > 42 µM (inactive)
44 | Cc1occc1-c1nnc(SCC(=O)N2CCN(c3ccccc3)CC2)n1C | > 42 µM (inactive)
45 | N#C/C(=C/c1ccc(N2CCCCC2)o1)C(=O)Nc1ccc(Cl)cc1 | > 42 µM (inactive)
46 | O=C(O)c1ccc(CNC(=O)c2ccccc2NC(=O)c2ccc([N+](=O)[O-])cc2)cc1 | > 42 µM (inactive)
47 | O=[N+]([O-])c1nn(-c2ccc(Cl)cc2)n(O)c1=NCc1ccccc1Cl | 24 µM
48 | CCOC(=O)c1c(CN2CCCCC2)n(C)c2cc(Br)c(O)c(CN(C)C)c12 | > 42 µM (inactive)
49 | N/C(=N\N=C\c1ccc(O)cc1)c1nonc1N | > 42 µM (inactive)
50 | CCN(Cc1ccccc1)Cc1ccc(OCc2ccccc2)c(OC)c1 | > 42 µM (inactive)
51 | CCCC1Cc2c(sc3ncnc(N)c23)CO1 (stereo unspecified) | > 42 µM (inactive)
52 | C/C(=N\NC(=O)Cc1csc(N2CCOCC2)n1)c1ccccc1 | > 42 µM (inactive)

Row | Compound | AC50
53 | C/C(=N/OCO/N=C(\C)c1ccccc1)c1ccccc1 | > 42 µM (inactive)
54 | CN(NC(=O)c1ccccc1F)c1nc(C(F)(F)F)nc2ccccc12 | > 42 µM (inactive)
55 | CN(C)c1ccnc2sc3c(NCC(O)CO)ncnc3c12 (stereo unspecified) | > 42 µM (inactive)
56 | O=C1CC(c2ccccc2)C(=O)N1c1cccc(O)c1 (stereo unspecified) | > 42 µM (inactive)
57 | CC(C)C(OC(=O)CN1C(=O)COc2ccccc21)C(=O)NC1CCCC1 (stereo unspecified) | > 42 µM (inactive)
58 | O=C(NCc1cccc(F)c1F)C1CCC(=O)N(C2CC2)C1 (stereo unspecified) | > 42 µM (inactive)
59 | CCOC(=O)CSc1cc(C)nc2ccc(OC)cc12 | > 42 µM (inactive)
60 | CCc1c(C(=O)N2CCN(c3ccccc3F)CC2)[nH]c(C)c1C(C)=O | > 42 µM (inactive)
61 | CC(C)CCn1c(=O)c2ccccc2c2ccccc2c1=O | > 42 µM (inactive)
62 | Cc1sc(-n2c(C)cc(C=C3C(=O)NC(=O)NC3=O)c2C)c(C#N)c1C | > 42 µM (inactive)
63 | COc1ccc(CCNC(=O)CC2C(=O)NCCN2CC(C)(C)C)cc1 (stereo unspecified) | > 42 µM (inactive)
64 | Cc1ccc(C)n1-n1cnc2sc3c(c2c1=O)CCCCC3 | > 42 µM (inactive)
65 | O=C(NCC1CCN(Cc2ccccc2Cl)CC1)Nc1ccccc1F | > 42 µM (inactive)
66 | Cc1ccc(SC[C@H](C)CN2CC[C@H](C)CCC2=O)cc1 | > 42 µM (inactive)
67 | CC1(C)C2CC[C@]3(C)C(CC=C4[C@@H]5C[C@@](C)(CO)[C@@H](O)C[C@]56C[C@@H](OC6=O)[C@]43C)[C@@]2(C)CC[C@@H]1O (stereo partly specified) | > 42 µM (inactive)
68 | O=C(Nc1ccc2c(c1)oc1ccccc12)C1CC1 | > 42 µM (inactive)
69 | N#CC1=C(N)Nc2ncnn2C1c1ccc([N+](=O)[O-])cc1 (stereo unspecified) | > 42 µM (inactive)
70 | CCN1CSC(=S)N(Cc2ccc(OC)cc2)C1 | 4.01 µM
71 | NC(=O)c1nsc(C(=O)N(Cc2ccc(F)cc2)C(C(=O)NC2CCCC2)c2ccco2)c1N (stereo unspecified) | > 42 µM (inactive)
72 | CC1=CC2=NC(=O)/C(=C\c3cc(C)n(-c4ccccc4)c3C)C(=N)N2O1 | > 42 µM (inactive)
73 | CC1CN(CCCOc2ccc([N+](=O)[O-])cc2)CC(C)O1 (stereo unspecified) | > 42 µM (inactive)
74 | CCN(C(=O)Cn1c(=O)oc2ccccc21)c1cccc(C)c1 | > 42 µM (inactive)
75 | O=C(N/N=C/c1cccc([N+](=O)[O-])c1)C1COc2ccccc2O1 (stereo unspecified) | > 42 µM (inactive)
76 | O=C(CCCNC(=O)/C(=C/c1ccccc1F)NC(=O)c1ccccc1)OCc1ccccc1 | > 42 µM (inactive)
77 | COC(=O)CN(C(=S)Nc1ccc(F)cc1)C1CC(=O)N(c2ccccc2)C1=O (stereo unspecified) | > 42 µM (inactive)
78 | CN(C)c1ccc(NS(=O)(=O)c2cccc(Cl)c2)cc1 | > 42 µM (inactive)

Row | Compound | AC50
79 | Cc1ccc(S(=O)(=O)N2CCOCC2)cc1NC(=O)COC(=O)CNC(=O)c1ccccc1 | > 42 µM (inactive)
80 | CN1C(=O)NC(=O)[C@]2(Cc3ccccc3N3CCN(c4ccccc4)CC32)C1=O (stereo partly specified) | > 42 µM (inactive)
81 | CCn1c(SCc2nc3ccccc3s2)nnc1-c1ccccc1 | > 42 µM (inactive)
82 | CC1=CC(C)(C)N2C(=O)C3(NCCc4c3[nH]c3ccccc43)c3cc(C)cc1c32 (stereo unspecified) | 5.51 µM
83 | COCC(=O)n1nc(-c2ccccc2)nc1NCc1ccc(N(C)C)cc1 | > 42 µM (inactive)
84 | COc1ccc(OC)c(Cc2nnc(CCC(=O)NCc3ccsc3)o2)c1 | > 42 µM (inactive)
85 | Cc1nn(CC(=O)Nc2ccccn2)c(C)c1[N+](=O)[O-] | > 42 µM (inactive)
86 | COc1ccc(CN(C)C(=O)c2sccc2-c2ccccc2)c(OC)c1 | > 42 µM (inactive)
87 | COc1cc(/C=C2\NC(=S)N(C)C2=O)ccc1OCc1cccc(F)c1 | > 42 µM (inactive)
88 | CCn1nccc1C(=O)Nc1ccccc1OC | > 42 µM (inactive)
89 | C[n+]1c(-c2ccccc2)cc(CCCCc2cc(-c3ccccc3)[n+](C)c(-c3ccccc3)c2)cc1-c1ccccc1 | > 21 µM (inactive)
90 | CCN1C(=S)N[C@@H](c2cccs2)C(C(=O)OC)=C1C | > 42 µM (inactive)
91 | Cc1ccc(O)c(C(=O)CC(=O)c2cccc(F)c2)c1 | 20.7 µM
92 | CC[C@@H]1C/C=C\Cc2ccccc2[C@H](C(=O)C[C@@H](O)CC(C)=O)OC1=O | 8.7 µM
93 | COc1cccc(-n2nnc3c(=O)n(CC(=O)N4CCCc5ccccc54)cnc32)c1 | > 42 µM (inactive)
94 | Cc1[nH]c(C)c(S(=O)(=O)NCC(C)c2ccccc2)c1C(=O)N1CCCCC1 (stereo unspecified) | > 42 µM (inactive)
95 | COc1ccc(N2C(=O)CSC2c2ccc([N+](=O)[O-])cc2)cc1 (stereo unspecified) | > 42 µM (inactive)
96 | N#CCN(N=Nc1ccccc1)c1ccccc1 | > 42 µM (inactive)
97 | Nc1cc[n+](CC(=O)Nc2ccccc2)cc1 | > 42 µM (inactive)
98 | COc1ccc(CN2CC(=O)N(c3ccccc3C)C2=S)cc1OC | > 42 µM (inactive)
99 | CCOC(=O)C1CCN(C(=O)COc2ccc(S(=O)(=O)N3CCOCC3)cc2C)CC1 | > 42 µM (inactive)
100 | CN1CCCCC1=NCCCn1cnc2c1c(=O)n(C)c(=O)n2C | > 42 µM (inactive)
101 | CC(=O)N(C(C)=O)c1c(C#N)c(C)n(-c2ccccc2)c1C(=O)c1ccccc1 | 20.4 µM
